“And” between values parts separate entries of the source, which are not always exact repeats. Equal values may be shown once.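 Method: 48-hour compound exposure of cells in 96-well plates, five concentrations, linear interpolation of endpoints. Here, GI50 denotes the concentration required for 50% inhibition of growth. At the TGI there is no net growth.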
Key:
Assay in all cases: NCI tumour cell line growth inhibition, 48 h
UO-31 renal = tested on: UO-31 renal
IGROV1 ovarian = tested on: IGROV1 ovarian
SNB-75 CNS = tested on: SNB-75 CNS
HCT-116 colon = tested on: HCT-116 colon
SR leukemia = tested on: SR leukemia
OVCAR-3 ovarian = tested on: OVCAR-3 ovarian
HOP-92 NSCLC = tested on: HOP-92 NSCLC
T-47D breast = tested on: T-47D breast
EKVX NSCLC = tested on: EKVX NSCLC
SW-620 colon = tested on: SW-620 colon
MDA-MB-435 = tested on: MDA-MB-435
HL-60(TB) leukemia = tested on: HL-60(TB) leukemia
RXF 393 renal = tested on: RXF 393 renal
A498 renal = tested on: A498 renal
KM12 colon = tested on: KM12 colon
K-562 leukemia = tested on: K-562 leukemia
HT29 colon = tested on: HT29 colon
U251 CNS = tested on: U251 CNS
UACC-257 melanoma = tested on: UACC-257 melanoma
NCI/ADR-RES ovarian = tested on: NCI/ADR-RES ovarian
NCI-H460 lung = tested on: NCI-H460 lung
NCI-H23 lung = tested on: NCI-H23 lung
CCRF-CEM leukemia = tested on: CCRF-CEM leukemia
A549 NSCLC = tested on: A549 NSCLC
SK-OV-3 ovarian = tested on: SK-OV-3 ovarian
SF-539 CNS = tested on: SF-539 CNS
MOLT-4 leukemia = tested on: MOLT-4 leukemia
SK-MEL-28 melanoma = tested on: SK-MEL-28 melanoma
SK-MEL-2 melanoma = tested on: SK-MEL-2 melanoma
HCC-2998 colon = tested on: HCC-2998 colon
SF-268 CNS = tested on: SF-268 CNS
MALME-3M melanoma = tested on: MALME-3M melanoma
OVCAR-8 ovarian = tested on: OVCAR-8 ovarian
LOX IMVI melanoma = tested on: LOX IMVI melanoma
SK-MEL-5 melanoma = tested on: SK-MEL-5 melanoma
ACHN renal = tested on: ACHN renal
SNB-19 CNS = tested on: SNB-19 CNS
HS 578T breast = tested on: HS 578T breast
OVCAR-5 ovarian = tested on: OVCAR-5 ovarian
SF-295 CNS = tested on: SF-295 CNS
NCI-H522 lung = tested on: NCI-H522 lung
COLO 205 colon = tested on: COLO 205 colon
PC-3 prostate = tested on: PC-3 prostate
TK-10 renal = tested on: TK-10 renal
786-0 renal = tested on: 786-0 renal
M14 melanoma = tested on: M14 melanoma
RPMI-8226 leukemia = tested on: RPMI-8226 leukemia
MDA-MB-231 breast = tested on: MDA-MB-231 breast
OVCAR-4 ovarian = tested on: OVCAR-4 ovarian
MCF7 breast = tested on: MCF7 breast
HCT-15 colon = tested on: HCT-15 colon
BT-549 breast = tested on: BT-549 breast
UACC-62 melanoma = tested on: UACC-62 melanoma
SN12C renal = tested on: SN12C renal
NCI-H226 lung = tested on: NCI-H226 lung
DU-145 prostate = tested on: DU-145 prostate
HOP-62 NSCLC = tested on: HOP-62 NSCLC
CAKI-1 renal = tested on: CAKI-1 renal

## COc1cc(-c2csc(NC(=O)Nc3cc(Cl)cc(Cl)c3)n2)cc(OC)c1OC
UO-31 renal
  GI50: 1.67 µM
  TGI: 3.3 µM
IGROV1 ovarian
  GI50: 2.03 µM
  TGI: 4.04 µM
SNB-75 CNS
  GI50: 1.49 µM
  TGI: 2.88 µM
HCT-116 colon
  GI50: 1.6 µM
  TGI: 2.97 µM
SR leukemia
  GI50: 2 µM
  TGI: 6.61 µM
OVCAR-3 ovarian
  GI50: 1.8 µM
  TGI: 3.26 µM
HOP-92 NSCLC
  GI50: 1.7 µM
  TGI: 3.73 µM
T-47D breast
  GI50: 1.67 µM
  TGI: 3.74 µM
EKVX NSCLC
  GI50: 1.87 µM
  TGI: 4.22 µM
SW-620 colon
  GI50: 1.97 µM
  TGI: 4.02 µM
MDA-MB-435
  GI50: 1.9 µM
  TGI: 3.96 µM
HL-60(TB) leukemia
  GI50: 3.65 µM
  TGI: > 100 µM
RXF 393 renal
  GI50: 1.73 µM
  TGI: 3.76 µM
A498 renal
  GI50: 1.42 µM
  TGI: 3.1 µM
KM12 colon
  GI50: 2.48 µM
  TGI: 8.14 µM
K-562 leukemia
  GI50: 4.4 µM
  TGI: > 100 µM
HT29 colon
  GI50: 2.02 µM
  TGI: 4.41 µM
U251 CNS
  GI50: 1.68 µM
  TGI: 3.15 µM
UACC-257 melanoma
  GI50: 2.98 µM
  TGI: 8.81 µM
NCI/ADR-RES ovarian
  GI50: 1.85 µM
  TGI: 3.94 µM
NCI-H460 lung
  GI50: 1.81 µM
  TGI: 3.52 µM
NCI-H23 lung
  GI50: 1.94 µM
  TGI: 4.5 µM
CCRF-CEM leukemia
  GI50: 3.41 µM
  TGI: > 100 µM
A549 NSCLC
  GI50: 1.72 µM
  TGI: 3.61 µM
SK-OV-3 ovarian
  GI50: 1.86 µM
  TGI: 3.75 µM
SF-539 CNS
  GI50: 1.99 µM
  TGI: 4.7 µM
MOLT-4 leukemia
  GI50: 3.9 µM
  TGI: > 100 µM
SK-MEL-28 melanoma
  GI50: 2.17 µM
  TGI: 5.43 µM
SK-MEL-2 melanoma
  GI50: 2.61 µM
  TGI: 7.97 µM
HCC-2998 colon
  GI50: 2.39 µM
  TGI: 5.55 µM
SF-268 CNS
  GI50: 2.81 µM
  TGI: 10.6 µM
MALME-3M melanoma
  GI50: 1.75 µM
  TGI: 3.25 µM
OVCAR-8 ovarian
  GI50: 1.84 µM
  TGI: 3.87 µM
LOX IMVI melanoma
  GI50: 1.93 µM
  TGI: 3.96 µM
SK-MEL-5 melanoma
  GI50: 3.15 µM
  TGI: 11.2 µM
ACHN renal
  GI50: 1.71 µM
  TGI: 3.15 µM
SNB-19 CNS
  GI50: 1.93 µM
  TGI: 4.03 µM
HS 578T breast
  GI50: 1.94 µM
  TGI: 4.91 µM
OVCAR-5 ovarian
  GI50: 2.25 µM
  TGI: 6.16 µM
SF-295 CNS
  GI50: 1.55 µM
  TGI: 3.01 µM
NCI-H522 lung
  GI50: 2.05 µM
  TGI: 7.09 µM
COLO 205 colon
  GI50: 3.11 µM
  TGI: 11.4 µM
PC-3 prostate
  GI50: 1.59 µM
  TGI: 3.61 µM
TK-10 renal
  GI50: 1.73 µM
  TGI: 3.16 µM
786-0 renal
  GI50: 1.84 µM
  TGI: 3.33 µM
M14 melanoma
  GI50: 1.68 µM
  TGI: 3.15 µM
RPMI-8226 leukemia
  GI50: 2.42 µM
  TGI: 9.24 µM
MDA-MB-231 breast
  GI50: 1.92 µM
  TGI: 4.12 µM
OVCAR-4 ovarian
  GI50: 1.78 µM
  TGI: 3.36 µM
MCF7 breast
  GI50: 2.01 µM
  TGI: 5.42 µM
HCT-15 colon
  GI50: 2.33 µM
  TGI: 6.97 µM
BT-549 breast
  GI50: 2.2 µM
  TGI: 4.65 µM
UACC-62 melanoma
  GI50: 1.61 µM
  TGI: 3.11 µM
SN12C renal
  GI50: 1.78 µM
  TGI: 3.28 µM
NCI-H226 lung
  GI50: 1.96 µM
  TGI: 4.38 µM
DU-145 prostate
  GI50: 1.77 µM
  TGI: 3.35 µM

## CC#Cc1nc(Nc2cc(C)[nH]n2)c2ccccc2n1
UO-31 renal
  GI50: 7.6 µM and 2.42 µM
  TGI: 14.5 µM
IGROV1 ovarian
  GI50: 2.58 µM
  TGI: 15.4 µM
SNB-75 CNS
  GI50: 1.48 µM
  TGI: 15.4 µM
HOP-62 NSCLC
  GI50: 12.4 µM
  TGI: 39.7 µM
HCT-116 colon
  GI50: 3.66 µM
  TGI: 39.4 µM
SR leukemia
  GI50: 5.07 µM
  TGI: > 100 µM
OVCAR-3 ovarian
  GI50: 3.38 µM
  TGI: 12.1 µM
HOP-92 NSCLC
  GI50: 3.55 µM
  TGI: 21.1 µM
T-47D breast
  GI50: 10.8 µM
  TGI: 56.5 µM
SW-620 colon
  GI50: 4.54 µM
  TGI: 32.4 µM
MDA-MB-435
  GI50: 3.18 µM
  TGI: 13.3 µM
RXF 393 renal
  GI50: 7.57 µM and 1.67 µM
  TGI: 4.96 µM
A498 renal
  GI50: 3.93 µM and 1.08 µM
  TGI: 2.75 µM
KM12 colon
  GI50: 4.38 µM and 2.4 µM
  TGI: 12.4 µM
K-562 leukemia
  GI50: 11.7 µM
  TGI: > 100 µM
HT29 colon
  GI50: 3.71 µM
  TGI: 16.9 µM
U251 CNS
  GI50: 11.3 µM
  TGI: 27.4 µM
UACC-257 melanoma
  GI50: 5.52 µM
  TGI: 20.9 µM
NCI/ADR-RES ovarian
  GI50: 6.63 µM
  TGI: > 100 µM
NCI-H460 lung
  GI50: 4.53 µM
  TGI: 20.3 µM
NCI-H23 lung
  GI50: 5.27 µM
  TGI: 41.6 µM
CCRF-CEM leukemia
  GI50: 4.6 µM
  TGI: > 100 µM
A549 NSCLC
  GI50: 5.16 µM
  TGI: 26.8 µM
SK-OV-3 ovarian
  GI50: 5.19 µM
  TGI: 61.3 µM
SF-539 CNS
  GI50: 3.81 µM
  TGI: 17.6 µM
MOLT-4 leukemia
  GI50: 5.33 µM
  TGI: > 100 µM
SK-MEL-28 melanoma
  GI50: 7.76 µM
  TGI: > 100 µM
SK-MEL-2 melanoma
  GI50: 2.92 µM
  TGI: 8.38 µM
HCC-2998 colon
  GI50: 2.43 µM
  TGI: 5.48 µM
SF-268 CNS
  GI50: 4.66 µM
  TGI: 20.5 µM
MALME-3M melanoma
  GI50: 7.24 µM
  TGI: 25.2 µM
OVCAR-8 ovarian
  GI50: 5.05 µM
  TGI: 37.3 µM
LOX IMVI melanoma
  GI50: 2.07 µM
  TGI: 4.4 µM
SK-MEL-5 melanoma
  GI50: 1.76 µM
  TGI: 3.61 µM
ACHN renal
  GI50: 2.74 µM
  TGI: 14.1 µM
SNB-19 CNS
  GI50: 19.8 µM
  TGI: 50.7 µM
HS 578T breast
  GI50: 2.28 µM
  TGI: 8.41 µM
OVCAR-5 ovarian
  GI50: 5.69 µM
  TGI: 30.7 µM
SF-295 CNS
  GI50: 12.3 µM
  TGI: 34.5 µM
NCI-H522 lung
  GI50: 6.24 µM
  TGI: 22 µM
CAKI-1 renal
  GI50: 2.32 µM
  TGI: 13.8 µM
COLO 205 colon
  GI50: 3.26 µM
  TGI: 10.3 µM
PC-3 prostate
  GI50: 5.22 µM
  TGI: 21.6 µM
TK-10 renal
  GI50: 3.57 µM
  TGI: 21.2 µM
786-0 renal
  GI50: 5.86 µM
  TGI: 29 µM
M14 melanoma
  GI50: 4.34 µM
  TGI: 23.8 µM
RPMI-8226 leukemia
  GI50: 6.95 µM and 3.32 µM
  TGI: 22.2 µM
MDA-MB-231 breast
  GI50: 2.85 µM
  TGI: 9.34 µM
OVCAR-4 ovarian
  GI50: 3.46 µM
  TGI: > 100 µM
MCF7 breast
  GI50: 3.32 µM
  TGI: 95.7 µM
HCT-15 colon
  GI50: 2.75 µM
  TGI: 12.8 µM
BT-549 breast
  GI50: 4.9 µM
  TGI: 23.2 µM
UACC-62 melanoma
  GI50: 2.67 µM
  TGI: 11.8 µM
SN12C renal
  GI50: 3.08 µM
  TGI: 10.4 µM
NCI-H226 lung
  GI50: 2.21 µM
  TGI: 11.1 µM
DU-145 prostate
  GI50: 7.47 µM
  TGI: 55 µM

Source: PubChem BioAssay (NCI)
